Laboratory results from patent US7732582B2, “Benzonaphthacene glycoside derivative and use thereof” (FUJIFILM Corporation, priority 2004, dated 2010).
Converted amounts (≈) assume the structure as drawn.

Columns and labels:
Mannan binding test = assay: Mannan binding test; parameters: species or system yeast; conditions: PBS(+); incubation at 30° C. for 24 hours; ~0: below detection limit (trace)
Protocol: A PBS(+) solution (100 μl) of mannan (Sigma, derived from yeast, 50 μg/ml) and a PBS(+) solution (100 μl) of each test compound (40 μg/ml) were mixed, and incubated at 30° C. for 24 hours. Then, the mixture was centrifuged (14,000 rpm, 4° C., 5 minutes), the supernatant was diluted 10 times with 0.01 N sodium hydroxide solution, and absorbance of the diluted mixture was measured at 500 nm. The amount of the dissolved compound was calculated on the basis of E1 cm1%180 (500 nm), and the amount of the compound binding to mannan was calculated.

[1] = Solubility test in PBS(−) and PBS(+) solution; type: physicochemical; conditions: for Solubility PBS(+): PBS(+) solution (with CaCl2 and MgCl2); for Solubility PBS (−): PBS(−) solution, ultrasonicated at 30° C. 10 minutes, room temperature 2 hours, absorbance at 500 nm
Protocol: PBS tablets (ICN Bioohemi Inc., containing 0.02 g of KH2PO4, 0.115 g of Na2HPO4, 0.02 g of KCl and […] of NaCl per tablet) were dissolved in distilled water (100 ml), and the solution was autoclaved to obtain a PBS(−) solution. The PBS(−) solution (80 ml) was added with CaCl2 dihydrate (1 g/L, 10 ml) and MgCl2 hexahydrate (1 g/L, 10 ml) to prepare a PBS(+) solution.
Each test compound (1 mg) was added to the PBS(−) solution (300 μl), and the mixture was ultrasonicated at 30° C. for 10 minutes, and left at room temperature for 2 hours. Then, the mixture was centrifuged (12,000 rpm, 10 minutes), the supernatant was diluted 50 times with 0.01 N sodium hydroxide solution, and absorbance of the diluted mixture was measured at 500 nm.
The solubility in the PBS(+) solution can also be obtained in a similar manner.

C. albicans A9540 = assay: Antifungal activity test, agar dilution method; type: cell-based; conditions: for MIC C. albicans A9540: yeast morphology agar, pH 7.0, 30° C. for 2 days; for antifungal activity against C. albicans (in words): compared with control BMY28864
Protocol: (§1) Antifungal activity was measured by the agar dilution method utilizing the yeast morphology agar (0.15 M phosphate buffer, pH 7.0). Each microorganism was inoculated in an amount of 5 μl of 2×10^6 cells/ml solution per spot, and cultured at 30° C. for 2 days. The results were represented in terms of the minimum growth inhibitory concentration. As a control compound, BMY28864 was used.

A. fumigatus IFO8866 = assay: Antifungal activity test, agar dilution method; type: cell-based; conditions: for MIC A. fumigatus IFO8866: yeast morphology agar, pH 7.0, 30° C. for 2 days; for antifungal activity against A. fumigatus (in words): compared with control BMY28864
Protocol: as §1

C. neoformans ATCC 90112 = assay: Antifungal activity test, agar dilution method; type: cell-based; conditions: for MIC C. neoformans ATCC 90112: yeast morphology agar, pH 7.0, 30° C. for 2 days; for antifungal activity against C. neoformans (in words): compared with control BMY28864
Protocol: as §1

| Binding to mannan (Mannan binding test) | Solubility PBS(+) [1] | Solubility PBS (−) [1] | MIC C. albicans A9540 (C. albicans A9540) | MIC A. fumigatus IFO8866 (A. fumigatus IFO8866) | MIC C. neoformans ATCC 90112 (C. neoformans ATCC 90112) | Compound | antifungal activity against C. albicans (in words) (C. albicans A9540) | antifungal activity against A. fumigatus (in words) (A. fumigatus IFO8866) | antifungal activity against C. neoformans (in words) (C. neoformans ATCC 90112) |
| --- | --- | --- | --- | --- | --- | --- | --- | --- | --- |
| 0.89 μg/1 μg of mannan | 68.5 µg/mL (≈ 81.5 µM) | 39.5 µg/mL (≈ 47 µM) | – | – | – | CN[C@@H]1[C@H](O[C@@H]2OC[C@@H](O)[C@H](O)[C@H]2O)[C@@H](O)[C@H](O[C@H]2c3cc(C)c(C(=O)N[C@H](C)C(=O)O)c(O)c3-c3c(cc4c(c3O)C(=O)c3cc(OC)cc(O)c3C4=O)[C@@H]2O)O[C@@H]1C [PRM A, Pradimicin (PRM) A, reference compound] | – | – | – |
| 0.81 μg/1 μg of mannan | 16,000 μg/ml | 14,000 μg/ml | 6.3 µg/mL (≈ 7.23 µM) | 12.5 µg/mL (≈ 14.4 µM) | 3.1 µg/mL (≈ 3.56 µM) | COc1cc(O)c2c(c1)C(=O)c1c(cc3c(c1O)-c1c(cc(C)c(C(=O)N[C@H](CO)C(=O)O)c1O)[C@H](O[C@@H]1O[C@H](C)[C@H](N(C)C)[C@H](O[C@@H]4OC[C@@H](O)[C@H](O)[C@H]4O)[C@H]1O)[C@H]3O)C2=O [BMY28864, N,N′-dimethylpradimicin FA-2, reference compound] | – | – | – |
| 0.79 μg/1 μg of mannan | 950 µg/mL (≈ 1110 µM) | 1,900 μg/ml | – | – | – | COc1cc(O)c2c(c1)C(=O)c1c(cc3c(c1O)-c1c(cc(C)c(C(=O)N[C@H](C)C(=O)O)c1O)[C@H](O[C@@H]1O[C@H](C)[C@H](N(C)C)[C@H](O[C@@H]4OC[C@@H](O)[C@H](O)[C@H]4O)[C@H]1O)[C@H]3O)C2=O [N,N-Me2-PRM C, reference compound] | – | – | – |
| 0.02 μg/1 μg of mannan | 2,300 μg/ml | 2,250 μg/ml | 6.3 µg/mL (≈ 7.49 µM) | >50 µg/mL | 12.5 µg/mL (≈ 14.9 µM) | CN[C@@H]1[C@H](O[C@H](OCC(=O)O)C(=O)O)[C@@H](O)[C@H](O[C@H]2c3cc(C)c(C(=O)N[C@H](C)C(=O)O)c(O)c3-c3c(cc4c(c3O)C(=O)c3cc(OC)cc(O)c3C4=O)[C@@H]2O)O[C@@H]1C [PRM A-DCA] | maintained | relatively low | maintained |
| ~0 μg/1 μg of mannan | 1,850 μg/ml | 1,400 μg/ml | 6.3 µg/mL (≈ 7.37 µM) | 25 µg/mL (≈ 29.2 µM) | 3.1 µg/mL (≈ 3.63 µM) | COc1cc(O)c2c(c1)C(=O)c1c(cc3c(c1O)-c1c(cc(C)c(C(=O)N[C@H](C)C(=O)O)c1O)[C@H](O[C@@H]1O[C@H](C)[C@H](N(C)C)[C@H](O[C@H](OCC(=O)O)C(=O)O)[C@H]1O)[C@H]3O)C2=O [N,N-Me2-PRM C-DCA] | almost equal to those of BMY28884 | lower than that of BMY28884 | almost equal to those of BMY28884 |

| Compound | Binding to mannan (Mannan binding test) | Solubility PBS(+) [1] | Solubility PBS (−) [1] | MIC C. albicans A9540 (C. albicans A9540) | MIC A. fumigatus IFO8866 (A. fumigatus IFO8866) | MIC C. neoformans ATCC 90112 (C. neoformans ATCC 90112) | antifungal activity against C. albicans (in words) (C. albicans A9540) | antifungal activity against A. fumigatus (in words) (A. fumigatus IFO8866) | antifungal activity against C. neoformans (in words) (C. neoformans ATCC 90112) |
| --- | --- | --- | --- | --- | --- | --- | --- | --- | --- |
| COc1cc(O)c2c(c1)C(=O)c1c(cc3c(c1O)-c1c(cc(C)c(C(=O)N[C@H](CO)C(=O)O)c1O)[C@H](O[C@@H]1O[C@H](C)[C@H](N(C)C)[C@H](O[C@H](OCC(=O)O)C(=O)O)[C@H]1O)[C@H]3O)C2=O [BMY28864-DCA] | 0.28 μg/1 μg of mannan | 37,500 μg/ml | 37,500 μg/ml | 12.5 µg/mL (≈ 14.4 µM) | >50 µg/mL | 25 µg/mL (≈ 28.7 µM) | maintained | relatively low | maintained |
